Measurements published in patent US8735406B2, “8-oxodihydropurine derivative” (Dainippon Sumitomo Pharma Co., Ltd., priority 2009, dated 2014).
Structures can show the parent of a compound that is named as a salt. Where two headings read alike, the source gives them in different places.

Target: T1, FAAH (Rattus norvegicus, UniProt P97612)
T1 construct: Preparation of Rat Brain Membranes Preparations (FAAH Enzyme Solution); from tissue; host or cells: rat cerebrum (brain membrane preparation)
T1 sequence (P97612 1-579): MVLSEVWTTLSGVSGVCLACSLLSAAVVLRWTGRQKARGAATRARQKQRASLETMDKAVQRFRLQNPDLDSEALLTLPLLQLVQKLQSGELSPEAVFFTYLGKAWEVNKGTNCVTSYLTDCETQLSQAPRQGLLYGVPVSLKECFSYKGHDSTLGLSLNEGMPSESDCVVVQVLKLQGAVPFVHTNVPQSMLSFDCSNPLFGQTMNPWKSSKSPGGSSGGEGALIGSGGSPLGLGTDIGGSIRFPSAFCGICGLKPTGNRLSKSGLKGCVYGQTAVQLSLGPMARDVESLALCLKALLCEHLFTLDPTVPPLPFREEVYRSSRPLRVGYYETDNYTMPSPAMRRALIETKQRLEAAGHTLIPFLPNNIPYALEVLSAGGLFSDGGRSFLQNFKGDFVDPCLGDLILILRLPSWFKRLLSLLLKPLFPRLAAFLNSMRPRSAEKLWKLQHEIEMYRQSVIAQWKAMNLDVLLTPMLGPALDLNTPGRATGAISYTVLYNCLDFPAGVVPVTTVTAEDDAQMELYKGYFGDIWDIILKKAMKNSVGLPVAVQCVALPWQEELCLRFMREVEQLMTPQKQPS
Test: Determination of FAAH inhibitory activity in rat (rat brain membrane preparations, [3H]-anandamide hydrolysis)
Format: biochemical
Conditions: rat brain membrane preparations; for IC50: read-out: FAAH Inhibition IC50
Method in brief: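 Compounds tested from 0.1 nM to 1 μM to derive IC50 against FAAH hydrolysis in rat brain membrane preparations (100 μg/mL). A 10-min 37 °C preincubation was followed by 10 min with [3H]-anandamide (2 nM) mixed with 2 μM unlabelled anandamide. Radioactive ethanolamine was extracted into the water/methanol layer and counted.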

[1] = 100 nM test substance, read-out: FAAH Inhibition, Inhibition Rate at 100 nM

inhibition at 0.1 µM [1]	IC50 (test substance 0.1 nM to 1 μM)	inhibition at 0.1 µM (at 100 nM, read-out: FAAH Inhibition Inhibition Rate at 100 nM)	IC50	Structure (SMILES)
98%	7 nM			Cc1cccc(-c2ncc3c(n2)n(C)c(=O)n3C(=O)N2CCCC2)c1 [Example 170, 9-Methyl-2-(3-methylphenyl)-7-(pyrrolidin-1-ylcarbonyl)-7,9-dihydro-8H-purine-8-one]
68%	72 nM			Cn1c(=O)n(C(=O)N2CCCC2)c2cnc(-c3cc(C(F)(F)F)ccc3F)nc21 [compound 199]
91%	42 nM			Cn1c(=O)n(C(=O)N2CCCC2)c2cnc(CCc3cccc(F)c3)nc21 [compound 13]
103%	5 nM			COc1ccc(CCC2CCN(C(=O)n3c(=O)n(C)c4nc(-c5cccc(OC)c5)ncc43)CC2)cc1 [Example 118, 2-(3-Methoxyphenyl)-7-({4-[2-(4-methoxyphenyl)ethyl]piperidin-1-yl}carbonyl)-9-methyl-7,9-dihydro-8H-purine-8-one]
59%	74 nM			CCN(C)C(=O)n1c(=O)n(C)c2nc(Cc3ccc(C(F)(F)F)cc3)ncc21 [compound 283]
52%	78 nM			Cc1ccc(OCCCc2ncc3c(n2)n(C(=O)N(C)C)c(=O)n3C)cc1 [Example 396]
69%	70 nM			Cc1cc(C)cc(-c2ncc3c(n2)n(C)c(=O)n3C(=O)N2CCCC2)c1 [compound 197]
53%	95 nM			Cn1c(=O)n(C(=O)N2CCCC2)c2cnc(-c3cccc(OCc4ccccc4)c3)nc21 [Example 202, 2-(3-benzyloxyphenyl)-9-methyl-7-(pyrrolidin-1-ylcarbonyl)-7,9-dihydro-8H-purine-8-one]
100%	3 nM			CCN(C)C(=O)n1c(=O)n(C)c2nc(Cc3cccc(F)c3)ncc21 [Example 284, N-Ethyl-2-(3-fluorobenzyl)-N,9-dimethyl-8-oxo-8,9-dihydro-7H-purine-7-carboxamide]
103%	4 nM			CN(C)C(=O)n1c(=O)n(C)c2cnc(CCc3cccc(F)c3)nc21 [Example 165, 2-[2-(3-Fluorophenyl)ethyl]-N,N,7-trimethyl-8-oxo-7,8-dihydro-9H-purine-9-carboxamide]
100%	17 nM			COc1cccc(-c2ncc3c(n2)n(C)c(=O)n3C(=O)N2CC[C@H](F)C2)c1 [Example 63, 7-{[(3S)-3-Fluoropyrrolidin-1-yl]carbonyl}-2-(3-methoxyphenyl)-9-methyl-7,9-dihydro-8H-purine-8-one]
95%	18 nM			CN(C)C(=O)n1c(=O)n(C)c2cnc(-c3cccc(OC(F)(F)F)c3)nc21 [compound 319]
97%	9 nM			CN(C)C(=O)n1c(=O)n(C)c2cnc(CCc3ccc(OCC(F)(F)F)cc3)nc21 [Example 553, N,N,7-Trimethyl-8-oxo-2-{2-[4-(2,2,2-trifluoroethoxy)phenyl]ethyl}-7,8-dihydro-9H-purine-9-carboxamide]
105%	2 nM			COc1cccc(-c2ncc3c(n2)n(C)c(=O)n3C(=O)N(C)CCOc2cccc(Cl)c2)c1 [Example 90, N-[2-(3-Chlorophenoxy)ethyl]-2-(3-methoxyphenyl)-N,9-dimethyl-8-oxo-8,9-dihydro-7H-purine-7-carboxamide]
107%	11 nM			Cn1c(=O)n(C(=O)N2CCC2)c2nc(-c3cccc(C(F)(F)F)c3)ncc21 [compound 357]
88%	17 nM			CN(C)C(=O)n1c(=O)n(C)c2cnc(CCc3ccc(C(F)(F)F)cc3)nc21 [Example 540, N,N,7-Trimethyl-8-oxo-2-{2-[4-(trifluoromethyl)phenyl]ethyl}-7,8-dihydro-9H-purine-9-carboxamide]
112%	3 nM			COCc1ncc2c(n1)n(C)c(=O)n2C(=O)N1CC[C@H](Oc2cccc(C)c2)C1 [Example 485, 2-(Methoxymethyl)-9-methyl-7-{[(3S)-3-(3-methylphenoxy)pyrrolidin-1-yl]carbonyl}-7,9-dihydro-8H-purine-8-one]
84%	58 nM			CC(=O)c1cccc(-c2ncc3c(n2)n(C(=O)N2CCCC2)c(=O)n3C)c1 [Example 238, 2-(3-Acetylphenyl)-7-methyl-9-(pyrrolidin-1-ylcarbonyl)-7,9-dihydro-8H-purine-8-one]

inhibition at 0.1 µM [1]	IC50 (test substance 0.1 nM to 1 μM)	inhibition at 0.1 µM (at 100 nM, read-out: FAAH Inhibition Inhibition Rate at 100 nM)	IC50	Structure (SMILES)
95%	41 nM			Cc1ccc(Cc2ncc3c(n2)n(C)c(=O)n3C(=O)N2CCCC2)cc1 [compound 259]
94%	7 nM			CN(C)C(=O)n1c(=O)n(C)c2cnc(CCCOc3ccc(C(F)(F)F)cc3)nc21 [Example 394, N,N,7-trimethyl-8-oxo-2-{3-[4-(trifluoromethyl)phenoxy]propyl}-7,8-dihydro-9H-purine-9-carboxamide hydrochloric acid salt]
96%	13 nM			Cn1c(=O)n(C(=O)N2CCC2)c2cnc(Cc3cccc(C(F)(F)F)c3)nc21 [Example 379, 7-(Azetidin-1-ylcarbonyl)-9-methyl-2-[3-(trifluoromethyl)benzyl]-7,9-dihydro-8H-purine-8-one]
93%	25 nM			COc1cccc(-c2ncc3c(n2)n(C)c(=O)n3C(=O)N(C)Cc2ccc(OC(F)(F)F)cc2)c1 [Example 83, 2-(3-Methoxyphenyl)-N,9-dimethyl-8-oxo-N-[4-(trifluoromethoxy)benzyl]-8,9-dihydro-7H-purine-7-carboxamide]
76%	32 nM			Cc1cccc(OCCCc2ncc3c(n2)n(C(=O)N(C)C)c(=O)n3C)c1 [Example 397]
94%	11 nM			COc1cccc(-c2ncc3c(n2)n(C)c(=O)n3C(=O)N(C)Cc2ccc(C(F)(F)F)cc2)c1 [Example 81, 2-(3-Methoxyphenyl)-N,9-dimethyl-8-oxo-N-[4-(trifluoromethyl)benzyl]-8,9-dihydro-7H-purine-7-carboxamide]
76%	57 nM			COCc1ncc2c(n1)n(C)c(=O)n2C(=O)N1CC[C@@H](Oc2ccccc2C)C1 [Example 476]
68%	51 nM			Cn1c(=O)n(C(=O)N2CCC2)c2nc(CCc3ccc(F)cc3)ncc21 [Example 587, 9-(Azetidin-1-ylcarbonyl)-2-[2-(4-fluorophenyl)ethyl]-7-methyl-7,9-dihydro-8H-purine-8-one]
97%	10 nM			CCN(C)C(=O)n1c(=O)n(C)c2nc(Cc3cccc(C)c3)ncc21 [Example 282, N-Ethyl-N,9-dimethyl-2-(3-methylbenzyl)-8-oxo-8,9-dihydro-7H-purine-7-carboxamide]
101%	8 nM			Cn1c(=O)n(C(=O)N2CCCC2)c2cnc(-c3cncc(F)c3)nc21 [compound 211]
96%	10 nM			Cc1cc(C)c(CCc2ncc3c(n2)n(C(=O)N2CCC2)c(=O)n3C)c(C)c1 [compound 566]
86%	28 nM			CN(C)C(=O)n1c(=O)n(C)c2cnc(CCc3ccccc3C(F)F)nc21 [compound 546]
97%	2 nM			COCc1ncc2c(n1)n(C)c(=O)n2C(=O)N1CC[C@H](Oc2cccc(Cl)c2)C1 [Example 490, 7-{[(3S)-3-(3-Chlorophenoxy)pyrrolidin-1-yl]carbonyl}-2-(methoxymethyl)-9-methyl-7,9-dihydro-8H-purine-8-one]
86%	9 nM			COCc1ncc2c(n1)n(C)c(=O)n2C(=O)N1CC[C@H](Oc2ccc(C)cc2)C1 [Example 484, 2-(Methoxymethyl)-9-methyl-7-{[(3S)-3-(4-methylphenoxy)pyrrolidin-1-yl]carbonyl}-7,9-dihydro-8H-purine-8-one]
		96%	9 nM	Cn1c(=O)n(C(=O)N2CCC2)c2nc(CCc3cccc(OCC(F)(F)F)c3)ncc21 [Example 612, 9-(Azetidin-1-ylcarbonyl)-7-methyl-2-{2-[3-(2,2,2-trifluoroethoxy)phenyl]ethyl}-7,9-dihydro-8H-purine-8-one]
55%	91 nM			Cn1c(=O)n(C(=O)N2CCCC2)c2nc(-c3ccc(F)nc3)ncc21 [Example 249]
86%	34 nM			COCc1ncc2c(n1)n(C)c(=O)n2C(=O)N1CC(c2ccccc2)C1 [Example 438, 2-(methoxymethyl)-9-methyl-7-[(3-phenylazetidin-1-yl)carbonyl]-7,9-dihydro-8H-purine-8-one]
101%	9 nM			CCN(C)C(=O)n1c(=O)n(C)c2cnc(-c3ccc(OC(F)F)cc3)nc21 [compound 345]
